Assay results: US20260185163A1, “MEN1 MUTATIONS AND USES THEREOF” (DANA-FARBER CANCER INSTITUTE, INC., priority 2022, published 2026)

Experiments:
M327I vs WT Menin = assay: fluorescence-based kinetic binding assay (HTRF jump dilution, off-rate); set-up: species or system human
Protocol: Off-rates for test compounds were determined using jump dilution experiments in the HTRF assay measuring FITC-MLL4-43 binding to HIS-Menin. Briefly, test compounds (30 nM) were pre-incubated for 1 hr with 30 nM HIS-Menin prebound to 30 nM Lanthascreen anti-HIS-Tb antibodies in 10 μL of menin assay buffer (50 mM Tris, pH 7.4, 50 mM NaCl, 5 mM DTT, 0.01% TX100) containing 0.02% fatty acid free BSA. After pre-incubation, 1 μL of the assay mixture was transferred to 100 μL of menin assay buffer containing 30 nM FITC-MLL-4-43 (1000×Ki) in white, opaque 384-well plates. The HTRF signal was measured at various times using a 320 nm excitation and 520 and 620 nm emission wavelengths with a 50 us delay and a 200 us window with the gain set to 2100 using a BMGlabTech ClarioStar Plus plate reader. The data was normalized to % inhibition at each time point, where 0% is the HTRF signal in the presence of 0.3 nM HIS-menin without test compound, and 100% is the HTRF signal in the absence of HIS-menin. The resulting % inhibition values were fit to a one-site exponential dissociation model using XlFit to determine the dissociation rate.

[1] = biological target: T1, M327I and T349M-mutant Menin (Homo sapiens, UniProt O00255, M322I); assay: isothermal titration calorimetry (ITC); type: binding; conditions: MEN1-M327I compared to MEN1-WT
T1 sequence (O00255 1-615 isoform O00255-1 M327I): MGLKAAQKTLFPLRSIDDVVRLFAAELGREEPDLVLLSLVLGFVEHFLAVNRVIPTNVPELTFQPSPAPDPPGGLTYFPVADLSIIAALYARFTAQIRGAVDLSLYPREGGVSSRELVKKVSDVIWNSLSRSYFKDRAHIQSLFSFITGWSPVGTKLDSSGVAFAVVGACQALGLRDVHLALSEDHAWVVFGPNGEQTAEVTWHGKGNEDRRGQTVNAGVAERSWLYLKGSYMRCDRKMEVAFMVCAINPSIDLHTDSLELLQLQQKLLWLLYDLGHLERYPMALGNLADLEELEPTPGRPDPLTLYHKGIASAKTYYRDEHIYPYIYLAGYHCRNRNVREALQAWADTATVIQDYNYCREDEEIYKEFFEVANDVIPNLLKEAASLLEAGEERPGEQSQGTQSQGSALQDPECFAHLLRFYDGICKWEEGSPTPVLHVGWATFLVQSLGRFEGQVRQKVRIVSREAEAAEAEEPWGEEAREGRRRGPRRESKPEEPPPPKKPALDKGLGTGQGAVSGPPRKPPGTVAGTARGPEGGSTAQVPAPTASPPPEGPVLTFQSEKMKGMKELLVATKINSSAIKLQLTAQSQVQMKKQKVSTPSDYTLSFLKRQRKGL
Protocol: (§1) All calorimetric experiments were carried out in ITC buffer (25 mM Hepes (pH 7.5), 200 mM NaCl, 1.0 mM TCEP) at 25° C. using an Affinity ITC from TA Instruments (New Castle, DE) equipped with autosampler. SNDX-5613 was dissolved in DMSO and diluted with the ITC buffer to final concentrations (50-200 μM. 1% DMSO). Protein sample was adjusted to contain 1% DMSO final concentration. The calorimetric cell, containing buffer or Menin (10 μM WT Menin, 5 μM M327I Menin, or 10 μM T349M Menin) was titrated by injecting 2.5 μl of SNDX-5613 solution with the concentration of 100 μM, 50 μM or 200 μM, respectively, 24 times with stirring speed at 75 rpm. The resulting isotherms were subtracted against buffer runs and fitted with a single-site model to yield thermodynamic parameters of ΔH and ΔS, stoichiometry, and KD using NanoAnalyze software (TA Instruments).

[2] = tested on: M327I and T349M-mutant Menin; assay: isothermal titration calorimetry (ITC); type: binding, human; conditions: mutant vs WT Menin
Protocol: as §1

CCN(C(=O)c1cc(F)ccc1Oc1cncnc1N1CC2(CCN(C[C@H]3CC[C@H](NS(=O)(=O)CC)CC3)CC2)C1)C(C)C [SNDX-5613, revumenib]
increase in the dissociation off rate (M327I vs WT Menin): > 30 fold | reduction in affinity, isothermal calorimetry [1]: over 50 fold | change in mutant binding affinities (Kd) determined by isothermal calorimetry [2]: > 50 fold
